Data: patent publication US12729393B2, “Agent interaction effects determination” (priority 2020, dated 2026)

What follows are compounds tested on Escherichia coli reference strain K12-MG1655 (assay: CombiANT self-interaction experiments (3 reservoirs filled with the same antibiotic)). Details: 3 biological replicates; Wilcoxon signed rank test.
Type: cell-based
From the text: FIG. 17 illustrates self-interaction experiments of the Escherichia coli reference strain K12-MG1655. FICi for all self-interactions for the 8 antibiotics AMP, CIP, CTX, GEN, FOF, NIT, MEC, TMP. Bars indicate average FICi values and standard deviation (SD) of 3 biological replicates.
First, as controls, we performed self-interaction experiments, where the 3 culture container insert reservoirs were filled with the same antibiotic. […] Next, to verify that the CombiANT™ assay produced valid synergy quantifications, we ran an accuracy and precision study. We tested all pairwise antibiotic interactions in the two Gram-negative reference strains E. coli […] and P. aeruginosa PA14, and the Gram-positive S. aureus reference strain ATCC29213 against a panel of 4 antibiotics. The tested antibiotics, ampicillin (AMP), cefotaxime (CTX), ciprofloxacin (CIP), and gentamicin (GEN), spanned three distinct mechanisms of action and are commonly used in treatments of bacteremia and sepsis caused by these bacterial species. FICi indices were calculated for all 6 pair-wise interactions and all three strains (FIG. 18A).

Compound	nature of self-interaction (FICi)
gentamicin	additive
CO/N=C(\C(=O)N[C@@H]1C(=O)N2C(C(=O)O)=C(COC(C)=O)CS[C@H]12)c1csc(N)n1 [CTX, cefotaxime]	additive
C[C@@H]1O[C@@H]1P(=O)(O)O [FOF, fosfomycin]	additive
O=C(O)c1cn(C2CC2)c2cc(N3CCNCC3)c(F)cc2c1=O [CIP, ciprofloxacin]	additive
COc1cc(Cc2cnc(N)nc2N)cc(OC)c1OC [TMP, trimethoprim]	additive
CC1(C)S[C@@H]2[C@H](/N=C/N3CCCCCC3)C(=O)N2[C@H]1C(=O)O [MEC, mecillinam]	additive
CC1(C)S[C@@H]2[C@H](NC(=O)[C@H](N)c3ccccc3)C(=O)N2[C@H]1C(=O)O [AMP, ampicillin]	additive
